Experimental data: patent US20250090515A1, “1-Deoxynojirimycin To Mitigate Hepatic Ischemia- Reperfusion” (KING FAISAL UNIVERSITY, priority 2023, published 2025)

How the values were obtained:
Type in all cases: in vivo, Wistar male rats
H I/R-induced injury [1] = test: Hepatic function biomarkers (serum ALT, AST, ALP, LDH) after hepatic ischemia-reperfusion; conditions: compared to H I/R animals
Description: (§1) Wistar male rats (age: 6-8 weeks; weight: 200-230 g) were obtained from Experimental Animal Research Centre, King Saud University, Riyadh, K S A. The animals were acclimatized with standard laboratory food and water ad libitum in ventilated cages system (12 h light/dark cycles, 20.3-23.1° C.) then kept throughout the whole experiment under the same conditions.
(§2) Rats were anesthetized with isoflurane with oxygen (2%, 0.5 L/h) throughout the whole surgery, under heat control and aseptic conditions. Animals' abdomen was shaved and sterilized, and a surgical incision (about 3 cm) from the pubic to the sternum was executed. The portal triad, comprising the hepatic artery, portal vein, and common bile duct, was clamped using a micro-vascular clamp for 60 min to prompt ischemia. Hepatic reperfusion was accompanied by releasing the micro-vascular clamp and permitted reperfusion for six hours. The sham-operated animals were subjected to all the procedures that occurred during H I/R, deprived of blood flow blockage.
(§3) 1-Deoxynojirimycin hydrochloride (1-DNJ) was purchased from Merck (Merck & Co., USA, product number D 9305). 1-DNJ was administered by gavage orally after being suspended in 1% carboxymethyl cellulose (CMC) solution. 1-DNJ dose (50 and 100 mg/kg) selection was based on previous studies. A total of 30 Wistar rats were haphazardly assigned into five groups (six rats/group). The sham group in which animals were given vehicle (1% CMC) orally for two weeks and subjected to sham steps. 1-DNJ+Sham group in which rats were administered 1-DNJ (100 mg/kg/day) for two weeks and then subjected to sham steps. Third group, the H I/R group, in which rats were administered 1% CMC for two weeks and then hepatic ischemia for 60 min followed by 6 hours reperfusion was implemented. Finally, 1-DNJ 50+H I/R and 1-DNJ 100+H I/R groups in which rats were pretreated with 1-DNJ (50, 100 mg/kg/day) respectively orally for two weeks, then subjected to hepatic I/R surgical procedure.
(§4) Once the reperfusion period was completed, animals' blood was obtained through the hearts, centrifuged at 4000×g for 15 min at 4° C., and stored at −20° C. to be utilized in the biochemical estimation of liver function tests, including ALT, AST, ALP, and LDH. Moreover, hepatic tissues were isolated, washed in cool PBS, and distributed in three portions. The first part was homogenized with PBS, centrifuged at 10,000×g for 15 min at 4° C., and consumed to evaluate oxidative stress and ELISA biomarkers. The second portion was stored at −20° C. for subsequent qRT-PCR and western blot analysis. The third part was fixed with 10% formalin buffered saline to estimate the histopathological variations as well as the immunohistochemical manifestation.
(§5) One-way ANOVA followed by Tukey-Kramer as a post hoc test were executed for multiple comparisons between different experimental groups. p as a level of probability was set at 0.05, indicating the significance level. All statistical analyses were performed using Graph Pad software (version 8, CA, USA).
Rat Alanine Aminotransferase (ALT) ELISA kit (ab285264), Aspartate Aminotransferase (AST) ELISA kit (ab263883), and Alkaline Phosphatase (ALP) colorimetric assay kit (ab83369), Lactate Dehydrogenase (LDH) colorimetric assay kit (ab102526) were obtained from Abcam (Boston, MA, USA) and utilized following the manufacturer's instructions.

H I/R-induced injury [2] = test: Hepatic oxidative stress biomarkers in hepatic tissue homogenate after hepatic ischemia-reperfusion; conditions: compared to H I/R animals
Description: as §1, §2, §3, §4, §5
Oxidative stress-related biomarkers, including antioxidant and lipid peroxidation enzymes such as CAT, SOD, GST, GSH, MDA, and NO contents, were monitored in the hepatic tissue homogenate. Malondialdehyde (MDA; ab238537), glutathione (GSH, ab65322), glutathione-s-transferase (GST, ab65326), nitric oxide (NO, ab272517) assay kits were purchased from Abeam Inc. (Cambridge, UK). Superoxide dismutase (SOD; MBS036924) and catalase (MBS726781) ELISA kits were obtained from My BioSource (San Diego, CA, USA). All the procedures were executed in accordance with the manufacturer's directions.

H I/R-induced injury [3] = test: Histopathological examination (H&E, Suzuki grading) of ischemic liver
Description: as §1, §2
1-Deoxynojirimycin hydrochloride (1-DNJ) was purchased from Merck (Merck & Co., USA, product number D 9305). 1-DNJ was administered by gavage orally after being suspended in 1% carboxymethyl cellulose (CMC) solution. 1-DNJ dose (50 and 100 mg/kg) selection was based on previous studies. A total of 30 Wistar rats were haphazardly assigned into five groups (six rats/group). […]

H I/R-induced injury [4] = test: Apoptotic markers (caspase 3, caspase 9) ELISA after hepatic ischemia-reperfusion; conditions: compared to H I/R animals
Description: as §1, §2, §3
Once the reperfusion period was completed, animals' blood was obtained through the hearts, centrifuged at 4000×g for 15 min at 4° C., and stored at −20° C. to be utilized in the biochemical estimation of liver function tests, including ALT, AST, ALP, and LDH. Moreover, hepatic tissues were isolated, washed in cool PBS, and distributed in three portions. […]
Inflammation markers including TNF-α (ab46070), […], IL-6 (ab100772) NFκB (ab133112) and IL-10 (ab214566), ELISA kits were obtained from Abcam Co., (Eugene, OR, USA). […] These markers were measured according to the manufacturer's instructions using a microplate reader SpectraMax i3X (Molecular devices San Jose, CA, USA).

[5] = 1-DNJ 50 mg/kg/day orally for 2 weeks before H I/R
[6] = 1-DNJ 100 mg/kg/day orally for 2 weeks before H I/R

Cl.OC[C@H]1NC[C@H](O)[C@@H](O)[C@@H]1O [1-DNJ, 1-Deoxynojirimycin hydrochloride]
percentage reduction in ALP (H I/R-induced injury [1]; [5]): 29.75% | percentage reduction in ALT (H I/R-induced injury [1]; [5]): 22.26% | percentage reduction in AST (H I/R-induced injury [1]; [5]): 26.96% | percentage reduction in LDH (H I/R-induced injury [1]; [5]): 24.39% | percentage reduction in ALP (H I/R-induced injury [1]; [6]): 44.53% | percentage reduction in ALT (H I/R-induced injury [1]; [6]): 43.11% | percentage reduction in AST (H I/R-induced injury [1]; [6]): 41.65% | percentage reduction in LDH (H I/R-induced injury [1]; [6]): 48.63% | percentage elevation in CAT (H I/R-induced injury [2]; [5]): 114.24% | percentage elevation in GSH (H I/R-induced injury [2]; [5]): 130.82% | percentage elevation in GST (H I/R-induced injury [2]; [5]): 49.42% | percentage elevation in SOD (H I/R-induced injury [2]; [5]): 60.80% | percentage reduction in MDA (H I/R-induced injury [2]; [5]): 24.18% | percentage reduction in NO (H I/R-induced injury [2]; [5]): 40.77% | percentage elevation in CAT (H I/R-induced injury [2]; [6]): 161.09% | percentage elevation in GSH (H I/R-induced injury [2]; [6]): 194.64% | percentage elevation in GST (H I/R-induced injury [2]; [6]): 99.02% | percentage elevation in SOD (H I/R-induced injury [2]; [6]): 89.51% | percentage reduction in MDA (H I/R-induced injury [2]; [6]): 30.71% | percentage reduction in NO (H I/R-induced injury [2]; [6]): 55.05% | histopathological changes by Suzuki scores (congestion, vacuolation, necrosis) (H I/R-induced injury [3]; 1-DNJ preconditioned animals (50 and 100 mg/kg/day orally, 2 weeks), related to H I/R animals): substantial reduction in hepatic congestion and hepatocellular vacuolation and necrosis | histopathological findings (H&E sections) (H I/R-induced injury [3]; 1-DNJ pretreated groups (50 and 100 mg/kg/day orally, 2 weeks) before H I/R): re-established hepatic parenchyma, less hepatocellular necrosis, fewer congested hepatic sinusoids, and portal vasculatures with slight vacuolation | percentage reduction in caspase 3 (H I/R-induced injury [4]; [5]): 27.62% | percentage reduction in caspase 9 (H I/R-induced injury [4]; [5]): 20.09% | percentage reduction in caspase 3 (H I/R-induced injury [4]; [6]): 41.23% | percentage reduction in caspase 9 (H I/R-induced injury [4]; [6]): 24.86%
